How the values were obtained:
mice = conditions: po, groups of 10
in vivo = conditions: mouse, po

Row | SMILES | LD50 (mice) | LD50 (in vivo)
1 | CC1=CC(=O)c2ccccc2C1=O [Vitamin K0, vitamin K0] | 500 mg/kg | –
2 | COc1c(O)c(C)c(CCCCCCCCCCO)c(O)c1OC [6-(10-hydroxydecyl)-2,3-dimethoxy-5-methyl-1,4-hydroquinone] | – | > 1000 mg/kg
3 | COC1=C(OC)C(=O)C(C/C=C(\C)CCC=C(C)C)=C(C)C1=O [Ubiquinone-2, ubiquinone-2] | – | > 500 mg/kg
4 | Cc1cc(O)c(C)c(C)c1O [2,3,5-Trimethyl-1,4-hydroquinone, 2,3,5-trimethyl-1,4-hydroquinone] | – | > 500 mg/kg
